This note sets out measurements from the supplement of paper PMC10307832.

Common to all, as to experiment: relative viability (nuclei count vs DMSO), 5 days (fraction); higher = more cells survive
Compound in the assay “AZD1208 + Linsitinib”: N[C@@H]1CCCN(c2c(/C=C3\SC(=O)NC3=O)cccc2-c2ccccc2)C1 [AZD1208] + C[C@]1(O)C[C@@H](c2nc(-c3ccc4ccc(-c5ccccc5)nc4c3)c3c(N)nccn32)C1 [Linsitinib] (partner 1 µM)
A digest of the protocol:
(§1)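 A single step with final 0.05% Triton X-100, 1% formaldehyde and 1 ug/ml Hoechst fixed the cells and stained nuclei 5 days after treatment. Lung cancer cell lines in 1536-well plates had been treated by pin tool the day after seeding with one drug alone or a fixed anchor-drug dose plus five library-drug doses (not always all listed) in √10 steps, and nuclei were counted on 4× images. Relative viability is the ratio of nuclei in treated wells to nuclei in vehicle wells, taken as the median of duplicate plates.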

Compound in the assay “XMD14-99 + Foretinib”: CN1CCN(CC1)C2=CC(=C(C=C2)NC3=NC(=C(S3)C(=O)C4=C(C=CC=C4Cl)Cl)N)OC [XMD14-99] + COc1cc2c(Oc3ccc(NC(=O)C4(C(=O)Nc5ccc(F)cc5)CC4)cc3F)ccnc2cc1OCCCN1CCOCC1 [Foretinib] (partner 0.25 µM)
An outline of the steps: as §1

Compound in the assay “AZD1208 + Crizotinib”: N[C@@H]1CCCN(c2c(/C=C3\SC(=O)NC3=O)cccc2-c2ccccc2)C1 [AZD1208] + C[C@@H](Oc1cc(-c2cnn(C3CCNCC3)c2)cnc1N)c1c(Cl)ccc(F)c1Cl [Crizotinib] (partner 1 µM)
A digest of the protocol:
as §1

Compound in the assay “AZD1208 + Pictilisib”: N[C@@H]1CCCN(c2c(/C=C3\SC(=O)NC3=O)cccc2-c2ccccc2)C1 [AZD1208] + CS(=O)(=O)N1CCN(Cc2cc3nc(-c4cccc5[nH]ncc45)nc(N4CCOCC4)c3s2)CC1 [Pictilisib] (partner 1 µM)
A digest of the protocol: as §1

For UMC-11, the relative viability came to 0.909 with AZD1208 + Linsitinib (first compound 0.08 µM); 0.767 in the assay with AZD1208 + Linsitinib (first compound 0.253 µM); 0.772 with AZD1208 + Linsitinib (first compound 0.8 µM); 0.67 with AZD1208 + Linsitinib (first compound 2.53 µM); 0.558 in the assay with AZD1208 + Linsitinib (first compound 8 µM); 1.03 in the assay with XMD14-99 + Foretinib (first compound 0.08 µM). Also, the relative viability came to 1.02 in the assay with XMD14-99 + Foretinib (first compound 0.8 µM); 1.03 in the assay with XMD14-99 + Foretinib (first compound 2.53 µM); 0.865 with XMD14-99 + Foretinib (first compound 8 µM); 0.553 with AZD1208 + Crizotinib (first compound 0.08 µM); 0.502 in the assay with AZD1208 + Crizotinib (first compound 0.253 µM); 0.426 with AZD1208 + Crizotinib (first compound 0.8 µM). The relative viability with AZD1208 + Crizotinib (first compound 2.53 µM) stood at 0.426; in the assay with AZD1208 + Crizotinib (first compound 8 µM) it was 0.275; in the assay with AZD1208 + Pictilisib (first compound 0.08 µM), 0.507; with AZD1208 + Pictilisib (first compound 0.253 µM) it was 0.612; with AZD1208 + Pictilisib (first compound 0.8 µM), 0.51; with AZD1208 + Pictilisib (first compound 2.53 µM) it was 0.389. Besides, the relative viability with AZD1208 + Pictilisib (first compound 8 µM) worked out at 0.344.
